≈ marks a conversion by molar mass, not a printed value. Like-named read-outs stand apart in the source and are kept apart here.
Key:
[1] = test system: promastigote form of Leishmania donovani (1S(MHOM/SD/62/1S)); experiment: Antileishmanial resazurin-based assay on promastigotes; assay type: cell-based; conditions: for IC50: Leishmania donovani, read-out: Antileishmanial Activity IC50 ± SD; for Antileishmanial Selectivity (SI): SI = CC50 against macrophages/IC50 against promastigotes
Description: A T-75 cm^2 cell culture flask was filled with complete Medium 199 [M199 supplemented with 10% heat-inactivated fetal bovine serum (HIFBS) and 100 IU/mL penicillin/streptomycin (Sigma, Darmstadt, Germany)] and used to grow the promastigote forms of Leishmania donovani. Every 72 h, flasks were subcultured and incubated at 28 °C.
The resazurin-based assay was used to evaluate the antileishmanial activity of the extract (100 μg/mL–0.16 μg/mL), major fractions (100 μg/mL–0.16 μg/mL), and isolated compounds (50 μg/mL–0.08 μg/mL) against the promastigote form of Leishmania donovani. Briefly, 10 μL of inhibitors at various triplicate doses (as prescribed for the antiplasmodial assay) were added to 90 μL of promastigotes from a logarithmic phase culture at a density of 4.10^5 parasites/mL. The plates were incubated for 28 h at 28 °C, and 10 μL of resazurin solution (Sigma, Darmstadt, Germany) was added. Amphotericin B (Sigma, Darmstadt, Germany) (10 μg–0.016 μg/mL) and 0.1% DMSO-treated wells were used as the […], respectively. After a further 44 h of incubation, plates were read using a Magelan Infinite M200 fluorescence plate reader (Tecan, Männedorf, Switzerland) at excitation and emission wavelengths of 530 and 590 nm, respectively.
(§1) The resulting fluorescence readings were used to calculate the growth inhibition percentages relative to the negative control for each sample and for each of the tested doses. GraphPad Prism 8.0 software was used to generate concentration-response curves from the nonlinear regression fit to determine the median inhibitory or cytotoxic concentration (IC50/CC50). The resistance index (RI) for antiplasmodial tests was calculated as the ratio between the samples’ IC50 values for the chloroquine-sensitive strain 3D7 and the multiresistant strain Dd2 [69]. Inhibitors with an RI value below 1 were considered to act preferentially on the resistant strain. Based on each inhibitor’s antiparasitic efficacy (IC50) and cell toxicity (CC50), selectivity indices (SI) were calculated [SI = CC50 (RAW)/IC50 (Parasites)]. Samples were classified as poorly toxic to RAW cells if their SI values were greater than 10 [70].

[2] = test system: multidrug-resistant Dd2 strain of Plasmodium falciparum (PfDd2); experiment: Antiplasmodial SYBR Green I fluorescence assay, PfDd2 strain; assay type: cell-based; conditions: Plasmodium falciparum
From the text: (§2) The parasite strains used in this study are continuously cultured at the Antimicrobial and Biocontrol Agents Unit of the University of Yaoundé I, and were graciously provided by BEI Resources (https://www.beiresources.org (accessed on 16 February 2019)). They comprise the Leishmania donovani strain (1S(MHOM/SD/62/1S), the multiresistant (PfDd2), and the chloroquine-sensitive (Pf3D7-(MRA-102)) strains of Plasmodium falciparum. RPMI 1640 media supplemented with 0.2% sodium bicarbonate (Sigma Aldrich, Billings, MT, USA), 0.5% Albumax II (Gibco), 1% hypoxanthine 100X (Gibco, Billings, MT, USA), 25 mM HEPES, and 0.04% gentamicin (Sigma Aldrich) was used to sustain P. falciparum strains in sterile petri dishes. Fresh red blood cells from healthy O^+ human volunteers were also added to the medium. These cells were suspended at 4% hematocrit (v/v) and incubated at 37 °C in a humidified environment with 5% CO2. To regularly maintain the culture, fresh medium was added to the culture every day. Thin blood smears stained with 10% Giemsa were used to microscopically monitor cell-cycle transition and parasitemia under immersion oil.
(§3) The antiplasmodial efficacy of the samples was evaluated using the SYBR Green I-based fluorescence assay, as previously reported by Smilkstein et al., on a sorbitol-synchronized ring stage culture of Plasmodium falciparum (PfDd2 and Pf3D7 strains). The test relies on the development of intense fluorescence following SYBR green binding to the exposed DNA found in wells containing healthy cells. Ninety microliters of parasites prepared with 1% hematocrit and 2% parasitemia and 10 μL of test sample extracts, fractions, isolated chemicals, chloroquine, and artemisinin were each added in triplicate into wells of a flat-bottomed microplate. The final test concentration values for the samples varied from 50 μg/mL-0.08 μg/mL and 100 μg/mL-0.16 μg/mL for extract/fractions. Following a 72 h incubation at 37 °C, 100 μL of SYBR Green I solution prepared with lysis buffer (0.2 μL of 10,000 SYBR Green I per mL of lysis buffer) made of EDTA (5 mM), Tris (20 mM; pH 7.5), Triton X-100 (0.08%; v/v), and saponin (0.008%; m/v) was added to each well. Fluorescence measurements were taken using an Infinite M200 microplate reader (Tecan, MT, USA) at emission and excitation wavelengths of 538 and 485 nm, respectively.
as §1

[3] = Cytotoxicity assay (resazurin) on RAW 264.7 macrophages; assay type: cell-based, murine; conditions: mouse
Description: The murine macrophage RAW 264.7 cell line was grown in DMEM (Dulbecco’s modified Eagle’s medium) containing 1% penicillin-streptomycin, 1% nonessential amino acids (NEA), and 10% HIFBS at 37 °C, and 5% CO2 in a humidified environment. A reverse Etaluma fluorescence microscope was used to view the cells every day, and the growth media was replaced every 72 h. At 80% confluence, cells were isolated using 0.25% Trypsine-EDTA (Gibco, MT, USA).
The murine macrophages, RAW 264.7 cells, were plated into a 96-well cell culture treated flat-bottomed plate ([…], Inc., Newton, NC 28658, USA) at a density of 10 × 10^4 cells/100 μL/well and incubated overnight to enable cell adhesion. A fresh complete medium containing serially diluted concentrations of crude extract, fractions, and compounds was used to replace the previous medium. The final assay concentration values for extracts/fractions and compounds varied from 400 μg/mL to 0.8 μg/mL and 100–0.16 μg/mL, respectively. Podophyllotoxin (Sigma-Aldrich, Munich, Germany) was used as a positive control at a maximum dose of 10 μM. After 48 h of incubation, 10 μL of resazurin solution (0.15 mg/mL dissolved in PBS) was added to each well, and the plates were incubated for an additional 4 h. Fluorescence data were finally recorded with a Magellan Infinite M200 plate reader (Tecan, Germany) at excitation and emission wavelengths of 530 nm and 590 nm, respectively.
as §1

[4] = test system: chloroquine-sensitive 3D7 strain of Plasmodium falciparum (Pf3D7); experiment: Antiplasmodial SYBR Green I fluorescence assay, Pf3D7 strain; assay type: cell-based; conditions: read-out: Antiplasmodial Activity Pf3D7 IC50 ± SD
From the text: as §2, §3, §1

[5] = test system: chloroquine-sensitive/sulfadoxine-resistant Pf3D7 strain; parameters: method as in PMID 36837917; conditions: in vitro; isolated from Trichilia monadelpha; cited from earlier work
[6] = test system: amastigote forms of Leishmania donovani; parameters: method as in doi:10.1076/phbi.39.4.284.5921; conditions: isolated from Khaya senegalensis; cited from earlier work
[7] = test system: amastigote; parameters: method as in PMID 15070160; conditions: from Pourouma guianensis; cited from earlier work
[8] = test system: promastigote; parameters: method as in PMID 15070160; conditions: from Pourouma guianensis; cited from earlier work
[9] = test system: clinical isolate of P. falciparum; parameters: method as in doi:10.1080/13880200601009123; conditions: cited from earlier work
[10] = test system: Leishmania amazonensis; parameters: method as in PMID 21343887; conditions: cited from earlier work
[11] = DD2, 72 h, read-out: Antiplasmodial Activity PfDd2 IC50 ± SD, PfDd2 strain, ring stage, 72 h
[12] = RAW 264.7 macrophages, 48 h incubation, resazurin, read-out: Cytotoxicity on RAW 264.7 Cells CC50 ± SD
[13] = L. donovani promastigotes, 28 °C
[14] = 3D7, Pf3D7 strain, ring stage, 72 h
[15] = DD2, PfDd2 strain, ring stage, 72 h, read-out: Antiplasmodial Activity PfDd2 IC50 ± SD
[16] = RAW 264.7 macrophage cells, RAW 264.7 macrophages, 48 h incubation, resazurin, read-out: Cytotoxicity on RAW 264.7 Cells CC50 ± SD

## C=C1[C@@H]2CC[C@@]3(C)[C@H](c4ccoc4)OC(=O)C[C@]13O[C@H]1CC(=O)C(C)(C)[C@H](CC(=O)OC)[C@]12C [Methylangolensate (4), methyl angolensate]
[1]
  IC50: 25.8 ± 0.27 µg/mL (≈ 54.9 µM)
  Antileishmanial Selectivity (SI): 2.81
[2]; [11]
  IC50: 20.5 ± 0.45 µg/mL (≈ 43.6 µM)
[3]; [12]
  CC50 at 48 h: 72.7 µg/mL (≈ 155 µM)
[4]; 3D7, 72 h
  IC50: 165.19 ± 0.06 µg/mL (≈ 351 µM)

## C=C(C)[C@@H]1CC[C@]2(C(=O)O)CC[C@]3(C)[C@H](CC[C@@H]4[C@@]5(C)C[C@@H](O)[C@H](O)C(C)(C)[C@@H]5CC[C@]43C)[C@@H]12 [Alphitolic acid (3), alphitolic acid]
[1]; [13]
  IC50: 17.1 ± 0.9 µg/mL (≈ 36.2 µM)
[1]
  Antileishmanial Selectivity (SI): 2.09
[2]; [11]
  IC50: > 200 µg/mL
[3]
  CC50 at 48 h: 35.8 µg/mL (≈ 75.6 µM)
[4]; [14]
  IC50: 146.77 ± 0.13 µg/mL (≈ 310 µM)

## COC(=O)[C@H](O)[C@@H]1[C@@]2(C)[C@H]3CC[C@@]4(C)[C@H](c5ccoc5)OC(=O)C[C@@]45O[C@H]4C(=O)[C@@]1(C)C[C@]2(OC(C)=O)[C@@H]4[C@@]35O [Khayanolide E (6), khayanolide E]
[5]
  IC50 against Pf3D7: 1.68 µg/mL (≈ 3.01 µM)
[1]; [13]
  IC50: 81.73 ± 0.12 µg/mL (≈ 146 µM)
[1]
  Antileishmanial Selectivity (SI): 0.99
[2]; [15]
  IC50: 14.03 ± 0.06 µg/mL (≈ 25.1 µM)
[3]
  CC50 at 48 h: 81.6 µg/mL (≈ 146 µM)
[4]; [14]
  IC50: 56.98 ± 0.08 µg/mL (≈ 102 µM)

## Oc1cc(O)c2c(c1)O[C@H](c1ccc(O)c(O)c1)[C@@H](O)[C@@H]2c1c(O)cc(O)c2c1O[C@H](c1ccc(O)c(O)c1)[C@@H](O)C2 [catechin-(4a,8)-catechin]
[6]
  IC50 against amastigote forms of Leishmania donovani: 3.98 µg/mL

## CCN(CC)CCCC(C)Nc1ccnc2cc(Cl)ccc12 (stereo not drawn) [Chloroquine, Chloroquine phosphate, reference compound]
[2]; DD2, 72 h, read-out: Antiplasmodial Activity PfDd2 IC50 ± SD
  IC50: 0.085 ± 0.01 µg/mL
[4]; 3D7, 72 h
  IC50: 0.022 ± 0.25 µg/mL

## C=C1C2C(OC3CC(=O)OC4(C)COC(=O)CC4C32C)C(OC(=O)C(O)C(C)CC)C2(C)C(c3ccoc3)CC(=O)C12O (stereo not drawn) [Rohituka-3 (5), rohituka-3]
[1]; [13]
  IC50: 23.35 ± 0.21 µg/mL (≈ 38.9 µM)
[1]
  Antileishmanial Selectivity (SI): >17.13
[2]; [11]
  IC50: 15.9 ± 0.33 µg/mL (≈ 26.5 µM)
[3]; [16]
  CC50 at 48 h: > 400 µg/mL
[4]; [14]
  IC50: 68 ± 0.02 µg/mL (≈ 113 µM)

## COc1cc([C@@H]2c3cc4c(cc3[C@H](O)[C@H]3COC(=O)[C@H]23)OCO4)cc(OC)c1OC [Podophyllotoxin, reference compound]
[3]; [12]
  CC50 at 48 h: 0.71 ± 0.2 µg/mL (≈ 1.71 µM)

## CC1(C)CC[C@]2(C(=O)O)CC[C@]3(C)C(=CCC4[C@@]5(C)C[C@@H](O)[C@H](O)C(CO)(CO)C5CC[C@]43C)C2[C@@H]1O (stereo partly drawn) [Bellericagenin B (2), bellericagenin B]
[1]; [13]
  IC50: 6.5 ± 0.01 µg/mL (≈ 12.5 µM)
[1]
  Antileishmanial Selectivity (SI): >61.54
[2]; [15]
  IC50: 34.02 ± 0.09 µg/mL (≈ 65.3 µM)
[3]
  CC50 at 48 h: > 400 µg/mL
[4]; [14]
  IC50: 107.7 ± 0.37 µg/mL (≈ 207 µM)

## CC1(C)CC[C@]2(C(=O)O)CC[C@]3(C)C(=CC[C@@H]4[C@@]5(C)CC[C@H](O)C(C)(C)[C@@H]5CC[C@]43C)[C@@H]2C1 [Oleanolic acid (7), oleanolic acid]
[7]
  IC50, antiamastigote inhibitory activity: 27 µg/mL (≈ 59.1 µM)
[1]; [13]
  IC50: 30.6 ± 0.67 µg/mL (≈ 67.1 µM)
[1]
  Antileishmanial Selectivity (SI): ˃13.06
[8]
  IC50, antipromastigote effect: 10 µg/mL (≈ 21.9 µM)
[9]
  IC50, growth of clinical isolate of P. falciparum: 15.2 µg/mL
[2]; [11]
  IC50: 43.6 ± 0.73 µg/mL (≈ 95.4 µM)
[10]
  IC50, growth of Leishmania amazonensis: 439.5 µg/mL
[3]; [16]
  CC50 at 48 h: > 400 µg/mL
[4]; [14]
  IC50: 93.58 ± 0.92 µg/mL (≈ 205 µM)

## C[C@@H]1CC[C@H]2[C@@H](C)C(=O)O[C@@H]3O[C@@]4(C)CC[C@@H]1[C@]32OO4 [Artemesin, artemisinin, reference compound]
[2]; [15]
  IC50: 0.024 ± 0.24 µg/mL (≈ 0.085 µM)
[4]; [14]
  IC50: 0.02 µg/mL (≈ 0.0708 µM)

## Oc1cc(O)c2c(c1)O[C@H](c1ccc(O)c(O)c1)[C@@H](O)[C@@H]2c1c(O)cc2c(c1O)C[C@H](O)[C@@H](c1ccc(O)c(O)c1)O2 [catechin-(4a,6)-catechin]
[6]
  IC50 against amastigote forms of Leishmania donovani: 3.85 µg/mL

## COc1ccc(-c2cc(=O)c3c(O)c(OC)c(OC)cc3o2)cc1OC [Belamcanidin (8), Belamcanidin]
[1]; [13]
  IC50: 22.21 ± 0.08 µg/mL (≈ 62 µM)
[1]
  Antileishmanial Selectivity (SI): >18.013
[2]; [15]
  IC50: 50.97 ± 0.37 µg/mL (≈ 142 µM)
[3]
  CC50 at 48 h: > 400 µg/mL
[4]; [14]
  IC50: 104.9 ± 0.39 µg/mL (≈ 293 µM)

## C[C@@H]1[C@H](O)[C@@H](C)/C=C/C=C/C=C/C=C/C=C/C=C/C=C/[C@H](O[C@@H]2O[C@H](C)[C@@H](O)[C@H](N)[C@@H]2O)C[C@@H]2O[C@](O)(C[C@@H](O)C[C@@H](O)[C@H](O)CC[C@@H](O)C[C@@H](O)CC(=O)O[C@H]1C)C[C@H](O)[C@H]2C(=O)O [Amphotericin B, amphotericin B, reference compound]
[1]; [13]
  IC50: 3.14 ± 0.46 µg/mL (≈ 3.4 µM)

From article PMC10609173, “Antiplasmodial and Antileishmanial Activities of a New Limonoid and Other Constituents from the Stem Bark of Khaya senegalensis” (Molecules, 2023)
